Source: patent US10457677B2 (priority 2015, dated 2019)
pIC50: −log10 of the molar value.

Target: purified human recombinant ATM (ataxia telangiectasia mutated), full length (Homo sapiens (Human), UniProt Q13315)
Experiment: ATM kinase assay - determination of ATM inhibition (IC50 ATM), TR-FRET
Type: biochemical
Details: 10 μM ATP, substrate p53
Procedure: ATM kinase assay—determination of ATM inhibition (IC50 ATM):
The IC50 value was determined with the aid of a biochemical ATM kinase assay. The assay consists of two steps: the enzymatic reaction and the detection step. Firstly, ATM (ataxia telangiectasia mutated) protein and the test substance are incubated at different concentrations with addition of substrate protein p53 and ATP. ATM mediates the phosphorylation of p53 at several positions, including at amino acid S15. The amount of phosphorylated p53 is determined with the aid of specific antibodies and the TR-FRET technique. The enzymatic ATM assay is carried out as TR-FRET (HTRF™, Cisbio Bioassays) based 384-well assay. In the first step, purified human recombinant ATM (human ATM, full length, GenBank ID NM_000051, expressed in a mammal cell line) is incubated in assay buffer for 15 minutes with the ATM inhibitor in various concentrations and without test substance as negative or neutral control. The assay buffer comprises 25 mM HEPES pH 8.0, 10 mM Mg(CH3COO)2, 1 mM MnCl2, 0,1% BSA and 0,01% Brij® 35, 5 mM dithiothreitol (DTT). […] In the second step, purified human recombinant cmyc-labelled p53 (human p53, full length, GenBank ID BC003596, expressed in Sf21 insect cells) and ATP are added, and the reaction mixture is incubated at 22° C. for 30-35 minutes. The pharmacologically relevant assay volume is 5 μl. […] The enzymatic reaction is stopped by addition of EDTA. […] After incubation, usually for 2 hours (between 1.5 and 15h), for signal development, the plates are analysed in a plate reader (EnVision, PerkinElmer) using TRF mode (and with laser excitation). […] The measurement data were processed by means of Genedata Screener software.

purified human recombinant ATM (ataxia telangiectasia mutated), full length, sequence (Q13315 whole entry, change not shown): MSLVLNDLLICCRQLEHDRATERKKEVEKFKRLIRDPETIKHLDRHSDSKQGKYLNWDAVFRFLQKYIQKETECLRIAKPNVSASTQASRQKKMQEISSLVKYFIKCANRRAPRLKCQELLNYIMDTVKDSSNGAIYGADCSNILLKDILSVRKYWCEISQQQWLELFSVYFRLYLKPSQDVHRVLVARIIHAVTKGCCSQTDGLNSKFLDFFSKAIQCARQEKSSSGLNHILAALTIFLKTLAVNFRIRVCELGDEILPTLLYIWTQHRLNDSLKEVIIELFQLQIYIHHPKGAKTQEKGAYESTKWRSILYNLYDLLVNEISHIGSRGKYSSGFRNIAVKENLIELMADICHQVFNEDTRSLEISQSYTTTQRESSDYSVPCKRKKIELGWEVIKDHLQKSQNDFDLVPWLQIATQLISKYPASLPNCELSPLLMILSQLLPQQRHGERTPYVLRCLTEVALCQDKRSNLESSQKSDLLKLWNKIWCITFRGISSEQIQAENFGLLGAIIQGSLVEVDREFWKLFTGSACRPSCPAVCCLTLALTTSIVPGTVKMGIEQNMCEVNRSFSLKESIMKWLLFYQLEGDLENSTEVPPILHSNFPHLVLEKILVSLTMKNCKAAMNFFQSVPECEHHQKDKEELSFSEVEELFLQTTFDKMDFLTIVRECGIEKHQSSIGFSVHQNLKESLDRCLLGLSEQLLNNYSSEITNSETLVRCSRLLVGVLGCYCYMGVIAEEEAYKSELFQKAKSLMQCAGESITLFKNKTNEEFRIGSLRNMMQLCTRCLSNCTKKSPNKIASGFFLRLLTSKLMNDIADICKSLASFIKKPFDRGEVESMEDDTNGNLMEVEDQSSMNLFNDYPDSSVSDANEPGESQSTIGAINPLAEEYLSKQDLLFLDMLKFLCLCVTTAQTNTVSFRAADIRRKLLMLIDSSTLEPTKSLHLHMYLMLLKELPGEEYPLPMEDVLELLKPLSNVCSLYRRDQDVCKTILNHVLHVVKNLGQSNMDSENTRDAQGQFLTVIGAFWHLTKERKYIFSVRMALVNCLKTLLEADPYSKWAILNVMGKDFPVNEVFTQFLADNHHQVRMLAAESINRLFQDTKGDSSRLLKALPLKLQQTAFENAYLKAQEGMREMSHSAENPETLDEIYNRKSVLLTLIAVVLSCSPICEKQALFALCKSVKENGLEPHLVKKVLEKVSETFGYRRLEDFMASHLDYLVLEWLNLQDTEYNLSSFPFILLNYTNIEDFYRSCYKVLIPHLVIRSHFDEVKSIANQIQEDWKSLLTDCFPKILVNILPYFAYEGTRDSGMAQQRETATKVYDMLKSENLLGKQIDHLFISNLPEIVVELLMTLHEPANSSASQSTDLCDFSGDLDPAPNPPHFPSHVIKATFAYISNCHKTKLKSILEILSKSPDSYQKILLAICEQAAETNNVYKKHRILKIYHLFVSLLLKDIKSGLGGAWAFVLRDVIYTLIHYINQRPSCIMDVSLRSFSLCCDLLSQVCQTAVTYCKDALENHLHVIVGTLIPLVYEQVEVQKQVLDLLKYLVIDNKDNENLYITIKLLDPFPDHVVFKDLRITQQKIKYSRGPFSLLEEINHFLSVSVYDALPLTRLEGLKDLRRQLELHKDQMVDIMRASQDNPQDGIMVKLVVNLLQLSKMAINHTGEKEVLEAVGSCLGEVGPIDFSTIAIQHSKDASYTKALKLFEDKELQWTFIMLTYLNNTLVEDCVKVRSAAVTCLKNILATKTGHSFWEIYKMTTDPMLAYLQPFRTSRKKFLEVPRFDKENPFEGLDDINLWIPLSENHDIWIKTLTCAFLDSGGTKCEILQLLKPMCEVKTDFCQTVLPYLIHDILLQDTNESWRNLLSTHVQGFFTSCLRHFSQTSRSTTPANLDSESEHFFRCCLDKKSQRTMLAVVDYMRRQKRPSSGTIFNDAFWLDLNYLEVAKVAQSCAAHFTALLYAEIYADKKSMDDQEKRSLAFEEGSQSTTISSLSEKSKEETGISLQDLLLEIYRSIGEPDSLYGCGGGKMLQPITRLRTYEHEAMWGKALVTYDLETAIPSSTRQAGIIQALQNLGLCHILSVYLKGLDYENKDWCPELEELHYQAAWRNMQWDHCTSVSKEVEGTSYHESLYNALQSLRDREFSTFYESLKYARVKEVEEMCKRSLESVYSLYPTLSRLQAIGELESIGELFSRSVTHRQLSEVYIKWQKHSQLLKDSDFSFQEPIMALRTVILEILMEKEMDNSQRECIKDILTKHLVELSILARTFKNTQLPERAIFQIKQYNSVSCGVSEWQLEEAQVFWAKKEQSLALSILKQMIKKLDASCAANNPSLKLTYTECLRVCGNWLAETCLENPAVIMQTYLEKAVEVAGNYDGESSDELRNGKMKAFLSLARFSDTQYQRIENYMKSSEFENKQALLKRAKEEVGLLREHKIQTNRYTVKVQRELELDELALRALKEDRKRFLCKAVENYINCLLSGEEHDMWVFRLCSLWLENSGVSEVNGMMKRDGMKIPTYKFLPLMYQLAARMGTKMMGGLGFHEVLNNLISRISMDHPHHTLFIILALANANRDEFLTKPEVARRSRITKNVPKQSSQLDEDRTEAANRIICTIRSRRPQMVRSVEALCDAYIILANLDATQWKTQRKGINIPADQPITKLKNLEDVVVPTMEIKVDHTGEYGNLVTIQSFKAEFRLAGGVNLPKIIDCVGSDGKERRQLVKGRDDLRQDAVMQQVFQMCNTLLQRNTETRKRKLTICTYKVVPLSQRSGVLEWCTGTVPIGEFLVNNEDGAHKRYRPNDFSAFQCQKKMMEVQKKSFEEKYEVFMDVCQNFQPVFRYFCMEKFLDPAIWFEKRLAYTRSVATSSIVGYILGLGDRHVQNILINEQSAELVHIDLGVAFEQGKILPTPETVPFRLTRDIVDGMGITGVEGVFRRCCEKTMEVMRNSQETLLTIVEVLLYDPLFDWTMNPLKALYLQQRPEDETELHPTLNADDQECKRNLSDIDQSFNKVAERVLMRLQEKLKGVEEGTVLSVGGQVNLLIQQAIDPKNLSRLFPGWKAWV

SMILES	pIC50
COc1cc2ncc3c(c2cc1-c1cnn(C)c1)n(-c1c(F)cncc1C1CC1)c(=O)n3C [compound 202, 1-(3-Cyclopropyl-5-fluoro-pyridin-4-yl)-7-methoxy-3-methyl-8-(1-methyl-1H-pyrazol-4-yl)-1,3-dihydro-imidazo[4,5-c]quinolin-2-one]	> 9.00
COc1cc2ncc3c(c2cc1-c1cnc2nc(C)[nH]c2c1)n(-c1c(F)cncc1OC)c(=O)n3C [compound 152, 1-(3-Fluoro-5-methoxy-pyridin-4-yl)-7-methoxy-3-methyl-8-(2-methyl-1H-imidazo[4,5-b]pyridin-6-yl)-1,3-dihydroimidazo[4,5-c]-quinolin-2-one]	> 9.00
CNCCOc1cnc(-n2c(=O)n(C)c3cnc4cc(OC)c(-c5cnn(C)c5)cc4c32)c(F)c1 [compound 206]	> 8.00
CCc1cnccc1-n1c(=O)n(C)c2cnc3cc(OC)c(-c4cnn(C)c4)cc3c21 [compound 156, 1-(3-Ethylpyridin-4-yl)-7-methoxy-3-methyl-8-(1-methyl-1H-pyrazol-4-yl)-1,3-dihydroimidazo[4,5-c] quinolin-2-one]	> 9.00
COc1cnc(-n2c(=O)n(C)c3cnc4cc(OC)c(-c5ccc6nc[nH]c6c5)cc4c32)c(F)c1 [compound 153, 8-(3H-Benzimidazol-5-yl)-1-(3-fluoro-5-methoxypyridin-2-yl)-7-methoxy-3-methyl-1,3-dihydroimidazo[4,5-c]-quinolin-2-one]	> 8.00
COc1cc2ncc3c(c2cc1-c1cnn(C)c1)n(-c1ccc(C#N)cn1)c(=O)n3C [Compound Example 48, 6-[7-Methoxy-3-methyl-8-(1-methyl-1H-pyrazol-4-yl)-2-oxo-2,3-dihydroimidazo-[4,5-c]quinolin-1-yl]-nicotinonitrile]	> 8.00
CCn1cc(-n2c(=O)n(C)c3cnc4cc(OC)c(-c5cn(C)nc5C)cc4c32)c(C)n1 [compound 135, 8-(1,3-Dimethyl-1H-pyrazol-4-yl)-1-(1-ethyl-3-methyl-1H-pyrazol-4-yl)-7-methoxy-3-methyl-1,3-dihydro-imidazo[4,5-c]quinolin-2-one]	> 9.00
COc1cc2ncc3c(c2cc1-c1cn(C)nc1C)n(-c1ncc(OCS(C)(=O)=O)cc1F)c(=O)n3C [compound 203, 8-(1,3-Dimethyl-1H-pyrazol-4-yl)-1-(3-fluoro-5-methyl-sulfonylmethoxypyridin-2-yl)-7-methoxy-3-methyl-1,3-dihydroimidazo[4,5-c]-quinolin-2-one]	> 9.00
COc1cc2ncc3c(c2cc1-c1cnn(C)c1)n(-c1ncc(OCC2CN(C)C2)cc1F)c(=O)n3C [compound 207, 1-[3-Fluoro-5-(1-methyl-azetidin-3-ylmethoxy)-pyridin-2-yl]-7-methoxy-3-methyl-8-(1-methyl-1H-pyrazol-4-yl)-1,3-dihydro-imidazo[4,5-c]quinolin-2-one]	> 8.00
COc1cc2ncc3c(c2cc1-c1cnn(C)n1)n(-c1cn(C)nc1C)c(=O)n3C [compound 102, 1-(1,3-Dimethyl-1H-pyrazol-4-yl)-7-methoxy-3-methyl-8-(2-methyl-2H-1,2,3-triazol-4-yl)-1,3-dihydroimidazo-[4,5-c]quinolin-2-one]	> 7.30
COc1cc2ncc3c(c2cc1-c1cnn(C)c1)n(-c1ccc2cc[nH]c2n1)c(=O)n3C [compound 69, 7-Methoxy-3-methyl-8-(1-methyl-1H-pyrazol-4-yl)-1-(1H-pyrrolo[2,3-b]pyridin-6-yl)1,3-dihydroimidazo-[4,5-c]quinolin-2-one]	> 9.00
COc1cc2ncc3c(c2cc1-c1cnn[nH]1)n(-c1c(F)cncc1OC)c(=O)n3C [compound 134, 1-(3-Fluoro-5-methoxy-pyridin-4-yl)-7-methoxy-3-methyl-8-(3H-1,2,3-triazol-4-yl)-1,3-dihydroimidazo-[4,5-c] quinolin-2-one]	> 9.00
COc1cnc(-n2c(=O)n(C)c3cnc4cc(OC)c(-c5cnn[nH]5)cc4c32)c(F)c1 [compound 128, 1-(3-Fluoro-5-methoxy-pyridin-2-yl)-7-methoxy-3-methyl-8-(3H-1,2,3-triazol-4-yl)-1,3-dihydroimidazo-[4,5-c] quinolin-2-one]	> 8.00
COc1cc2ncc3c(c2cc1-c1cnn(C)c1)n(-c1ccccn1)c(=O)n3C [Compound Example 56, 7-Methoxy-3-methyl-8-(1-methyl-1H-pyrazol-4-yl)-1-pyridin-2-yl-1,3-dihydro-imidazo[4,5-c]quinolin-2-one]	> 8.00
COc1cc2ncc3c(c2cc1-c1n[nH]cc1C)n(-c1cn(C)nc1C)c(=O)n3C [compound 151, 1-(1,3-Dimethyl-1H-pyrazol-4-yl)-7-methoxy-3-methyl-8-(4-methyl-1H-pyrazol-3-yl)-1,3-dihydroimidazo[4,5-c] quinolin-2-one]	> 7.30
COc1cnc(-n2c(=O)n(C)c3cnc4cc(OC)c(-c5ccc6nc(C)[nH]c6c5)cc4c32)c(F)c1 [compound 144, 1-(3-Fluoro-5-methoxy-pyridin-2-yl)-7-methoxy-3-methyl-8-(2-methyl-3H-benzoimidazol-5-yl)-1,3-dihydroimidazo[4,5-c]-quinolin-2-one]	> 9.00
COc1cc2ncc3c(c2cc1-c1cnn(C)c1)n(-c1ncc(Cl)cc1F)c(=O)n3C [compound 119, 1-(5-Chloro-3-fluoropyridin-2-yl)-7-methoxy-3-methyl-8-(1-methyl-1H-pyrazol-4-yl)-1,3-dihydroimidazo[4,5-c]-quinolin-2-one]	> 9.00
COc1cnc(-n2c(=O)n(C)c3cnc4cc(OC)c(-c5cn(C)nn5)cc4c32)c(F)c1 [compound 133, 1-(3-Fluoro-5-methoxy-pyridin-2-yl)-7-methoxy-3-methyl-8-(1-methyl-1H-1,2,3-triazol-4-yl)-1,3-dihydroimidazo[4,5-c] quinolin-2-one]	> 8.00
CCc1cncc(F)c1-n1c(=O)n(C)c2cnc3cc(OC)c(-c4cnn(C)n4)cc3c21 [compound 112, 1-(3-Ethyl-5-fluoropyridin-4-yl)-7-methoxy-3-methyl-8-(2-methyl-2H-1,2,3-triazol-4-yl)-1,3-dihydroimidazo-[4,5-c] quinolin-2-one]	> 8.00
COc1cc2ncc3c(c2cc1-c1cnn(C)c1)n(-c1c(F)cncc1OC(F)F)c(=O)n3C [compound 146, 1-(3-Difluoromethoxy-5-fluoropyridin-4-yl)-7-methoxy-3-methyl-8-(1-methyl-1H-pyrazol-4-yl)-1,3-dihydroimidazo[4,5-c]-quinolin-2-one]	> 9.00
COc1cc2ncc3c(c2cc1-c1cn(C)nn1)n(-c1c(F)cncc1OC)c(=O)n3C [compound 131, 1-(3-Fluoro-5-methoxy-pyridin-4-yl)-7-methoxy-3-methyl-8-(1-methyl-1H-1,2,3-triazol-4-yl)-1,3-dihydroimidazo[4,5-c]-quinolin-2-one]	> 8.00
COc1cc2ncc3c(c2cc1-c1cnn(C2CNC2)c1)n(-c1c(F)cncc1OC)c(=O)n3C [compound 208, 8-[1-(Azetidin-3-yl)-1H-pyrazol-4-yl]-1-(3-fluoro-5-methoxypyridin-4-yl)-7-methoxy-3-methyl-1H,2H,3H-imidazo[4,5-c]-quinolin-2-one]	> 8.00
COc1cc2ncc3c(c2cc1-c1ccc2nc(C)[nH]c2c1)n(-c1cn(C)nc1C)c(=O)n3C [compound 132, 1-(1,3-Dimethyl-1H-pyrazol-4-yl)-7-methoxy-3-methyl-8-(2-methyl-3H-benzo-imidazol-5-yl)-1,3-dihydro-imidazo[4,5-c]quinolin-2-one]	> 9.00
COc1cc2ncc3c(c2cc1-c1cnn(C)c1)n(-c1c(F)cncc1OCF)c(=O)n3C [compound 148]	> 9.00
C=CCOc1cnc(-n2c(=O)n(C)c3cnc4cc(OC)c(-c5cnn(C)c5)cc4c32)c(F)c1 [compound 204, 1-(5-Allyloxy-3-fluoropyridin-2-yl)-7-methoxy-3-methyl-8-(1-methyl-1H-pyrazol-4-yl)-1,3-dihydroimidazo[4,5-c]-quinolin-2-one]	> 9.00
COc1cc2ncc3c(c2cc1-c1cnn(C)c1)n(-c1ncccn1)c(=O)n3C [Compound Example 52, 7-Methoxy-3-methyl-8-(1-methyl-1H-pyrazol-4-yl)-1-pyrimidin-2-yl-1,3-dihydro-imidazo[4,5-c]quinolin-2-one]	> 8.00
COc1cc2ncc3c(c2cc1-c1cn(C)nn1)n(-c1c(C)cncc1F)c(=O)n3C [compound 63, 1-(3-Fluoro-5-methylpyridin-4-yl)-7-methoxy-3-methyl-8-(1-methyl-1H-1,2,3-triazol-4-yl)-1,3-dihydroimidazo-[4,5-c] quinolin-2-one]	> 8.00
COc1cnc(-n2c(=O)n(C)c3cnc4cc(OC)c(-c5cn(C)nc5C)cc4c32)c(F)c1 [compound 106, 8-(1,3-Dimethyl-1H-pyrazol-4-yl)-1-(3-fluoro-5-methoxypyridin-2-yl)-7-methoxy-3-methyl-1,3-dihydroimidazo[4,5-c]-quinolin-2-one]	> 9.00
